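Results reflect a 48-hour exposure of cells in 96-well plates to compound at five concentrations. TGI marks complete inhibition of growth.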
What follows are compounds tested on A549 NSCLC (assay: NCI anticancer screen, dose series, 48 h).

CCNC(=S)N/N=C(\C)c1cccc(C)n1 and Cc1ccc(NC(=O)CC(=O)n2nc(C)c(N=Nc3cccc(C)c3)c2C)cc1 cannot be ordered by TGI: over 100 µM for the first, over 100 µM for the second.

CN1CCN([C@H]2C[C@H]3[C@@H]4CC=C5C[C@@H](O)CC[C@]5(C)[C@H]4CC[C@]3(C)[C@H]2O)CC1 and C[C@H](CCC(=O)NCC(=O)O)[C@H]1CC[C@H]2[C@@H]3[C@H](O)C[C@@H]4C[C@H](O)CC[C@]4(C)[C@H]3CC[C@]12C cannot be ordered by TGI: over 100 µM for the first, over 100 µM for the second.

CC1C2(C)OCC(C#N)(C(=N)O2)C1(C#N)C#N (stereo not given) and C=C1CC2[C@H](C)C(=O)CCC2(C)C2=C1C1CCC(C(C)CCC(=C)C(C)C(=O)O)C1(C)CC2=O (stereo not given in full) cannot be ordered by TGI: over 100 µM for the first, over 100 µM for the second.

C=CC[C@H](N=C(SC)SC)C(=O)N1C(=O)N(C)[C@@H](C)[C@H]1c1ccccc1 and Cc1ccc2c(c1C)C(=O)/C(=C/c1cccc(C)c1C(=O)O)C2 cannot be ordered by TGI: over 100 µM for the first, over 100 µM for the second.

First: CC(=O)c1sc2[n+](c1C)C(=O)/C(=C\c1ccccc1Cl)S2
Second: CN(C)CCCNC(=O)c1cn2c(ccc3sc4ccccc4c(=O)c32)n1
The TGI of the first is 1.5-fold higher: 43.6 µM for the first, 28.3 µM for the second.

CCCCCCCCCCCCOP(=O)(O)OP(=O)(O)OCC1OC(n2cc(C)c(=O)[nH]c2=O)CC1O (stereo not given) and CC(=O)NC1C(OCc2ccccc2)OC(CO)C(O)C1OCC(=O)N[C@@H](C)C(=O)N[C@H](CCC(=O)NCCCNc1ccc([N+](=O)[O-])c2[nH]c3ccccc3c(=O)c12)C(N)=O (stereo not given in full) cannot be ordered by TGI: over 100 µM for the first, over 100 µM for the second.

First: O=C1c2cc([N+](=O)[O-])sc2C(=O)c2c([N+](=O)[O-])csc21
Second: O=C1C=C(N2CCN(CCOCCO)CC2)C(=O)c2c(O)ccc(O)c21
The TGI of the first is 3.2-fold lower: 3.56 µM for the first, 11.4 µM for the second.

Compared with CC(C)C(NC(=O)C(Cc1ccccc1)NC(=O)[C@H]1CCC[C@H]1NC(=O)C(Cc1ccc(OC(C)(C)C)cc1)NC(=O)OC(C)(C)C)C(N)=O (stereo not given in full), CC(C)NC(=O)OCc1c(COC(=O)NC(C)C)c(-c2cc[n+](COC(=O)C3CCCCC3)cc2)n2c1CCC2 is higher in TGI: 45.5 µM for the first, over 100 µM for the second.

Going from N#C/C(=C\c1ccc2[nH]ccc2c1)C(=O)c1ccc(O)c(O)c1 to O=[N+]([O-])/C(C(Cl)=C(Cl)Cl)=C(/Nc1ccccc1)Sc1ccccc1, the TGI falls from over 100 µM to 50.2 µM.

O=C1N(c2ccccc2)C(=S)/C(=C/c2ccc(Cl)cc2)N1c1ccc(Cl)cc1 and O=[N+]([O-])C(C=C(n1nnc2ccccc21)n1nnc2ccccc21)=C(n1nnc2ccccc21)n1nnc2ccccc21 cannot be ordered by TGI: over 100 µM for the first, over 100 µM for the second.

Going from CC/C(N)=N\NC(=O)OC(C)(C)C to O=P(O)(O)CN1CCNCCN(CP(=O)(O)O)CC1, the TGI falls from over 100 µM to 58.7 µM.

For c1cc2c(cc1C1=NCCN1)c1cc(C3=NCCN3)ccc1n2CC1CCCCC1, the TGI was over 100 µM.

The compounds below were run on SK-MEL-5 melanoma (assay: NCI anticancer screen, dose series, 48 h).

Compared with CCNC(=S)N/N=C(\C)c1cccc(C)n1, Cc1ccc(NC(=O)CC(=O)n2nc(C)c(N=Nc3cccc(C)c3)c2C)cc1 is higher in TGI: 23.8 µM for the first, over 100 µM for the second.

CN1CCN([C@H]2C[C@H]3[C@@H]4CC=C5C[C@@H](O)CC[C@]5(C)[C@H]4CC[C@]3(C)[C@H]2O)CC1 and C[C@H](CCC(=O)NCC(=O)O)[C@H]1CC[C@H]2[C@@H]3[C@H](O)C[C@@H]4C[C@H](O)CC[C@]4(C)[C@H]3CC[C@]12C cannot be ordered by TGI: over 54.7 µM for the first, over 100 µM for the second.

First: CC1C2(C)OCC(C#N)(C(=N)O2)C1(C#N)C#N (stereo not given)
Second: C=C1CC2[C@H](C)C(=O)CCC2(C)C2=C1C1CCC(C(C)CCC(=C)C(C)C(=O)O)C1(C)CC2=O (stereo not given in full)
The TGI of the first is lower: 23.4 µM for the first, over 100 µM for the second.

C=CC[C@H](N=C(SC)SC)C(=O)N1C(=O)N(C)[C@@H](C)[C@H]1c1ccccc1 and Cc1ccc2c(c1C)C(=O)/C(=C/c1cccc(C)c1C(=O)O)C2 cannot be ordered by TGI: over 100 µM for the first, over 100 µM for the second.

First: CC(=O)c1sc2[n+](c1C)C(=O)/C(=C\c1ccccc1Cl)S2
Second: CN(C)CCCNC(=O)c1cn2c(ccc3sc4ccccc4c(=O)c32)n1
The TGI of the first is 7-fold higher: 23.4 µM for the first, 3.34 µM for the second.

CCCCCCCCCCCCOP(=O)(O)OP(=O)(O)OCC1OC(n2cc(C)c(=O)[nH]c2=O)CC1O (stereo not given) and CC(=O)NC1C(OCc2ccccc2)OC(CO)C(O)C1OCC(=O)N[C@@H](C)C(=O)N[C@H](CCC(=O)NCCCNc1ccc([N+](=O)[O-])c2[nH]c3ccccc3c(=O)c12)C(N)=O (stereo not given in full) cannot be ordered by TGI: over 100 µM for the first, over 100 µM for the second.

Going from O=C1c2cc([N+](=O)[O-])sc2C(=O)c2c([N+](=O)[O-])csc21 to O=C1C=C(N2CCN(CCOCCO)CC2)C(=O)c2c(O)ccc(O)c21, the TGI rises from 0.313 µM to 3.12 µM (10-fold).

CCOc1cc2c(cc1O)C(N)C[C@@H]1[C@@H]2CC[C@]2(C)[C@@H](O)CC[C@@H]12 (stereo not given in full) and CC(C)NC(=O)OCc1c(COC(=O)NC(C)C)c(-c2cc[n+](COC(=O)C3CCCCC3)cc2)n2c1CCC2 cannot be ordered by TGI: over 100 µM for the first, over 100 µM for the second.

First: CC(C)C(NC(=O)C(Cc1ccccc1)NC(=O)[C@H]1CCC[C@H]1NC(=O)C(Cc1ccc(OC(C)(C)C)cc1)NC(=O)OC(C)(C)C)C(N)=O (stereo not given in full)
Second: O=[N+]([O-])/C(C(Cl)=C(Cl)Cl)=C(/Nc1ccccc1)Sc1ccccc1
The TGI of the first is 1.7-fold lower: 21.5 µM for the first, 36.7 µM for the second.

N#C/C(=C\c1ccc2[nH]ccc2c1)C(=O)c1ccc(O)c(O)c1 and O=C1N(c2ccccc2)C(=S)/C(=C/c2ccc(Cl)cc2)N1c1ccc(Cl)cc1 cannot be ordered by TGI: over 100 µM for the first, over 100 µM for the second.

Going from CC/C(N)=N\NC(=O)OC(C)(C)C to O=P(O)(O)CN1CCNCCN(CP(=O)(O)O)CC1, the TGI falls from over 100 µM to 71.8 µM.

c1cc2c(cc1C1=NCCN1)c1cc(C3=NCCN3)ccc1n2CC1CCCCC1 gave a TGI of 36.2 µM.

Each compound was assayed on SW-620 colon (assay: NCI anticancer screen, dose series, 48 h).

CCNC(=S)N/N=C(\C)c1cccc(C)n1 and C=CC[C@H](N=C(SC)SC)C(=O)N1C(=O)N(C)[C@@H](C)[C@H]1c1ccccc1 cannot be ordered by TGI: over 100 µM for the first, over 100 µM for the second.

Going from CN1CCN([C@H]2C[C@H]3[C@@H]4CC=C5C[C@@H](O)CC[C@]5(C)[C@H]4CC[C@]3(C)[C@H]2O)CC1 to C[C@H](CCC(=O)NCC(=O)O)[C@H]1CC[C@H]2[C@@H]3[C@H](O)C[C@@H]4C[C@H](O)CC[C@]4(C)[C@H]3CC[C@]12C, the TGI rises from 49.7 µM to over 100 µM.

CC1C2(C)OCC(C#N)(C(=N)O2)C1(C#N)C#N (stereo not given) and CCOc1cc2c(cc1O)C(N)C[C@@H]1[C@@H]2CC[C@]2(C)[C@@H](O)CC[C@@H]12 (stereo not given in full) cannot be ordered by TGI: over 100 µM for the first, over 100 µM for the second.

Compared with CC(=O)c1sc2[n+](c1C)C(=O)/C(=C\c1ccccc1Cl)S2, O=C1c2cc([N+](=O)[O-])sc2C(=O)c2c([N+](=O)[O-])csc21 is 29-fold lower in TGI: 31.1 µM for the first, 1.07 µM for the second.

CCCCCCCCCCCCOP(=O)(O)OP(=O)(O)OCC1OC(n2cc(C)c(=O)[nH]c2=O)CC1O (stereo not given) was tested, and the TGI was over 100 µM.

— PubChem BioAssay (NCI)
